Test results taken from the NIST ThermoML archive (doi:10.1021/je060271a).

Details: 303.15 K, Liquid, Vibrating tube method

CCCCC(=O)OCC(COC(=O)CCCC)(COC(=O)CCCC)COC(=O)CCCC [pentaerythritol tetrapentanoate]
Details	mass density [kg/m3]
24416 kPa	1025.8
24455 kPa	1025.9
24486 kPa	1025.8
24518 kPa	1026
24556 kPa	1025.8
24588 kPa	1025.8
24618 kPa	1026.1
24648 kPa	1025.9
24685 kPa	1026.1
24717 kPa	1026
24757 kPa	1026
24790 kPa	1025.9
24823 kPa	1026.1
24863 kPa	1026.1
24893 kPa	1026.2
24922 kPa	1026
24956 kPa	1026.1
24986 kPa	1026.1
25015 kPa	1026.2
25045 kPa	1026.1
25080 kPa	1026.2
25109 kPa	1026.2
25144 kPa	1026.2
25174 kPa	1026.2
25203 kPa	1026.3
25233 kPa	1026.4
25269 kPa	1026.3
25298 kPa	1026.2
25328 kPa	1026.3
25364 kPa	1026.3
25394 kPa	1026.4
25430 kPa	1026.2
25460 kPa	1026.4
25490 kPa	1026.3
25527 kPa	1026.3
25558 kPa	1026.5
25588 kPa	1026.4
25624 kPa	1026.5
25654 kPa	1026.6
25686 kPa	1026.6
25753 kPa	1026.5
25785 kPa	1026.6
25816 kPa	1026.6
25854 kPa	1026.6
25885 kPa	1026.7
25916 kPa	1026.7
25954 kPa	1026.8
25985 kPa	1026.7
26023 kPa	1026.6
26054 kPa	1026.7
26086 kPa	1026.8
26119 kPa	1026.7
26157 kPa	1026.8
26190 kPa	1026.8
26222 kPa	1027
26261 kPa	1026.9
26294 kPa	1026.9
26326 kPa	1027
26365 kPa	1027
26398 kPa	1026.9
26431 kPa	1027
26469 kPa	1027
26503 kPa	1027
26536 kPa	1027
26575 kPa	1027.2
26609 kPa	1027
26642 kPa	1027
26686 kPa	1027.2
26712 kPa	1027.1
26753 kPa	1027.2
26787 kPa	1027.1
26822 kPa	1027.2
26863 kPa	1027.3
26897 kPa	1027.2
26931 kPa	1027.2
26966 kPa	1027.3
27007 kPa	1027.3
27042 kPa	1027.2
27077 kPa	1027.3
27119 kPa	1027.3
27156 kPa	1027.3
27191 kPa	1027.3
27233 kPa	1027.5
27268 kPa	1027.3
27303 kPa	1027.5
27338 kPa	1027.4
27381 kPa	1027.4
27416 kPa	1027.6
27452 kPa	1027.5
27495 kPa	1027.6
27531 kPa	1027.5
27574 kPa	1027.6
27611 kPa	1027.7
27647 kPa	1027.7
27683 kPa	1027.6
27727 kPa	1027.6
27763 kPa	1027.7
27800 kPa	1027.6
27844 kPa	1027.8
27881 kPa	1027.8
27919 kPa	1027.7
27964 kPa	1027.8
28003 kPa	1027.8
28041 kPa	1027.8
28089 kPa	1027.9
28128 kPa	1027.9
28160 kPa	1027.9
28193 kPa	1027.8
28221 kPa	1027.9
28249 kPa	1028
28282 kPa	1028
28310 kPa	1028
28338 kPa	1028
28366 kPa	1028
28399 kPa	1028
28427 kPa	1027.9
28461 kPa	1028.1
28489 kPa	1028
28518 kPa	1028.1
28546 kPa	1028.1
28580 kPa	1028
28609 kPa	1028.1
28638 kPa	1028.2
28672 kPa	1028.1
28700 kPa	1028.2
28729 kPa	1028.2
28764 kPa	1028.3
28792 kPa	1028.2
28821 kPa	1028.3
28856 kPa	1028.3
28885 kPa	1028.5
28915 kPa	1028.3
28950 kPa	1028.4
28978 kPa	1028.3
29008 kPa	1028.4
29043 kPa	1028.4
29072 kPa	1028.4
29102 kPa	1028.5
29132 kPa	1028.5
29168 kPa	1028.4
29198 kPa	1028.4
29228 kPa	1028.5
29264 kPa	1028.6
29294 kPa	1028.6
29325 kPa	1028.5
29356 kPa	1028.5
29392 kPa	1028.5
29422 kPa	1028.6
29453 kPa	1028.6
29483 kPa	1028.6
29520 kPa	1028.7
29550 kPa	1028.7
29587 kPa	1028.7
29617 kPa	1028.6
29648 kPa	1028.8
29684 kPa	1028.7
29716 kPa	1028.7
29749 kPa	1028.8
29779 kPa	1028.8
29810 kPa	1028.8
